According to US9499551B2, “Substituted pyrrolo[2,3-b]pyridines for treating cancer or inflammatory diseases” (Confluence Life Sciences, Inc., priority 2014, dated 2016):

Target: T1, TAK1-TAB1 (Homo sapiens, UniProt O43318)
T1 sequence (O43318 with tags, fused parts or gaps limits assumed): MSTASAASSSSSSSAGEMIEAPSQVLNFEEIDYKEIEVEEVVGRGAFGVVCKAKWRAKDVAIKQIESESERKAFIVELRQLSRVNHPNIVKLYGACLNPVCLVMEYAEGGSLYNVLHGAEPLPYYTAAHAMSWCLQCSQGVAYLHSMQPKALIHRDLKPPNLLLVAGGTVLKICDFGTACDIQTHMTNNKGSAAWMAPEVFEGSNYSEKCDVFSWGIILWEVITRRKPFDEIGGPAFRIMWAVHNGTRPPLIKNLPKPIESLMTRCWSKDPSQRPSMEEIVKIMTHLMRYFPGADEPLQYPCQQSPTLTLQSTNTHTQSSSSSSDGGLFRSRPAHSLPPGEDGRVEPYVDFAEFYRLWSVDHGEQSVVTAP
Assay: TAK1-TAB1 binding inhibitory potency (LanthaScreen competitive binding assay, kinase tracer-236)
Settings: 10 nM TAK1-TAB1, 100 nM kinase tracer-236; read-out: TAK1-Tab Inhibition IC50
Description: TAK1-TAB1 Binding Inhibitory Potency:
The ability of candidate compounds to interact with TAK1-TAB1 is quantitated by a competitive binding assay using the LanthaScreen technology developed by Life Technologies. This assay is based on the binding of a proprietary, Alexa Fluor® 647-labeled, ATP-competitive kinase inhibitor (kinase tracer-236) to the TAK1-TAB1 construct in presence of a europium-conjugated antibody, resulting in a FRET (fluorescence resonance energy transfer) signal. Displacement of the kinase tracer by compound results in a lower emission ratio upon excitation of the europium chelate. Candidate compounds are designed as potential irreversible inhibitors of TAK1-TAB1, capable of ligating to an active site cysteine residue. The time dependent nature of irreversible inhibition is investigated by performing the binding assay with and without a pre-incubation of compound and TAK1-TAB1.
The inhibitory potency of candidate compounds is measured in 20 mM HEPES pH 7.5, 10 mM MgCl2, 0.01% BSA, 0.0005% Tween-20, and 2% DMSO in the presence of 10 nM TAK1-TAB1, 2 nM Eu-anti-his antibody, and 100 nM kinase tracer-236 using a 384-well plate format. Background signal is defined in the absence of TAK1-TAB1 and uninhibited signal is defined in the presence of vehicle (2% DMSO) alone. Compounds were evaluated in an 11 point dose-response ranging from 20 μM to 0.34 nM. The binding assays are performed under two conditions to evaluate time dependence of inhibition. For the pre-incubation assay, TAK1-TAB1 and Eu-anti-his antibody are preincubated with compound or vehicle for two hours prior to the addition of kinase tracer. The non-preincubated assay is run in which TAK1-TAB1 and Eu-anti-his antibody are added to a mixture of compound and kinase tracer. IC50 values of compounds are determined using a 4 parameter logistical fit of emission ratio as a function of the concentration of compound. […]

IC50, ≤ 1000 nM:
NC(=O)/C=C/c1c[nH]c2ncc(-c3ccc(C(=O)c4nccs4)cc3)cc12 [Example 324, (E)-3-(5-(4-(thiazole-2-carbonyl)phenyl)-1H-pyrrolo[2,3-b]pyridin-3-yl)acrylamide]
CC(C)COc1ccc(-c2cnc3[nH]cc(/C=C/C(N)=O)c3c2)cn1 [Example 325, (E)-3-(5-(6-isobutoxypyridin-3-yl)-1H-pyrrolo[2,3-b]pyridin-3-yl)acrylamide]
CC(C)Cn1cc(-c2cnc3[nH]cc(/C=C/C(N)=O)c3c2)ccc1=O [Example 326, (E)-3-(5-(1-isobutyl-6-oxo-1,6-dihydropyridin-3-yl)-1H-pyrrolo[2,3-b]pyridin-3-yl)acrylamide]
NC(=O)/C=C/c1c[nH]c2ncc(-c3ccc(OCC4CC4)nc3)cc12 [Example 327, (E)-3-(5-(6-(cyclopropyl-methoxy)pyridin-3-yl)-1H-pyrrolo[2,3-b]pyridin-3-yl)acrylamide]
NC(=O)/C=C/c1c[nH]c2ncc(-c3ccc(=O)n(CC4CC4)c3)cc12 [Example 328, (E)-3-(5-(1-(cyclopropyl-methyl)-6-oxo-1,6-dihydropyridin-3-yl)-1H-pyrrolo[2,3-b]pyridin-3-yl)acrylamide]
CON(C)C(=O)c1ccc(-c2cnc3[nH]cc(/C=C/C(N)=O)c3c2)cc1 [Example 329, (E)-4-(3-(3-amino-3-oxoprop-1-en-1-yl)-1H-pyrrolo[2,3-b]pyridin-5-yl)-N-methoxy-N-methyl-benzamide]
Cc1nc2[nH]cc(/C=C/C(N)=O)c2cc1-c1cccnc1 [Example 330, (E)-3-(6-methyl-5-(pyridin-3-yl)-1H-pyrrolo[2,3-b]pyridin-3-yl)acrylamide]
CC(=O)c1ccc(-c2cc3c(/C=C/C(N)=O)c[nH]c3nc2C)cc1 [Example 331, (E)-3-(5-(4-acetylphenyl)-6-methyl-1H-pyrrolo[2,3-b]pyridin-3-yl)acrylamide]
NC(=O)/C=C/c1c[nH]c2ncc(N3CCN(C(=O)c4ccc(F)cc4F)CC3)cc12 [Example 332, (E)-3-(5-(4-(2,4-difluorobenzoyl)piperazin-1-yl)-1H-pyrrolo[2,3-b]pyridin-3-yl)acrylamide]
CN1CCC(C(=O)c2ccc(-c3cnc4[nH]cc(/C=C/C(N)=O)c4n3)cc2)CC1 [Example 333, (E)-3-(2-(4-(1-methylpiperidine-4-carbonyl)phenyl)-5H-pyrrolo[2,3-b]pyrazin-7-yl)acrylamide]
CN1CCC(C(=O)c2ccc(-c3cnc4[nH]cc(/C=C/C(N)=O)c4c3)cc2)CC1 [Example 334, (E)-3-(5-(4-(1-methylpiperidine-4-carbonyl)phenyl)-1H-pyrrolo[2,3-b]pyridin-3-yl)acrylamide]
CC(C)c1ccc(C(=O)N2CCN(c3cnc4[nH]cc(/C=C/C(N)=O)c4c3)CC2)cc1 [Example 335, (E)-3-(5-(4-(4-isopropylbenzoyl)piperazin-1-yl)-1H-pyrrolo[2,3-b]pyridin-3-yl)acrylamide]
CCOCCOc1ccc(-c2cnc3[nH]cc(/C=C/C(N)=O)c3c2)cn1 [Example 336, (E)-3-(5-(6-(2-ethoxyethoxy)pyridin-3-yl)-1H-pyrrolo[2,3-b]pyridin-3-yl)acrylamide]
CCOCCn1cc(-c2cnc3[nH]cc(/C=C/C(N)=O)c3c2)ccc1=O [Example 337, (E)-3-(5-(1-(2-ethoxyethyl)-6-oxo-1,6-dihydropyridin-3-yl)-1H-pyrrolo[2,3-b]pyridin-3-yl)acrylamide]
NC(=O)/C=C/c1c[nH]c2ncc(C(=O)c3ccccc3)cc12 [Example 338, (E)-3-(5-benzoyl-1H-pyrrolo[2,3-b]pyridin-3-yl)acrylamide]
CC(=O)c1ccc(-c2cnc3[nH]cc(/C=C/C(N)=O)c3c2)cc1C [Example 339, (E)-3-(5-(4-acetyl-3-methylphenyl)-1H-pyrrolo[2,3-b]pyridin-3-yl)acrylamide]
CC(=O)c1ccc(-c2cnc3[nH]cc(/C=C/C(N)=O)c3n2)cc1C [Example 340, (E)-3-(2-(4-acetyl-3-methylphenyl)-5H-pyrrolo[2,3-b]pyrazin-7-yl)acrylamide]
NC(=O)/C=C/c1c[nH]c2ncc(-c3cccc(Oc4ccccc4)c3)cc12 [Example 341, (E)-3-(5-(3-phenoxyphenyl)-1H-pyrrolo[2,3-b]pyridin-3-yl)acrylamide]
NC(=O)/C=C/c1c[nH]c2ncc(-c3ccc(Oc4ccccc4)cc3)cc12 [Example 342, (E)-3-(5-(4-phenoxyphenyl)-1H-pyrrolo[2,3-b]pyridin-3-yl)acrylamide]
NC(=O)/C=C/c1c[nH]c2ncc(-c3ccc4c(c3)CCC4=O)nc12 [Example 343, (E)-3-(2-(1-oxo-2,3-dihydro-1H-inden-5-yl)-5H-pyrrolo[2,3-b]pyrazin-7-yl)acrylamide]
NC(=O)/C=C/c1c[nH]c2ncc(-c3ccc(Oc4ccc(F)cc4)cc3)cc12 [Example 344, (E)-3-(5-(4-(4-fluorophenoxy)phenyl)-1H-pyrrolo[2,3-b]pyridin-3-yl)acrylamide]
NC(=O)/C=C/c1c[nH]c2ncc(-c3ccc(Oc4ccccc4)nc3)cc12 [Example 345, (E)-3-(5-(6-phenoxypyridin-3-yl)-1H-pyrrolo[2,3-b]pyridin-3-yl)acrylamide]
CC(=O)c1cccc(N2CCN(c3cnc4[nH]cc(/C=C/C(N)=O)c4c3)CC2)c1 [Example 346, (E)-3-(5-(4-(3-acetylphenyl)piperazin-1-yl)-1H-pyrrolo[2,3-b]pyridin-3-yl)acrylamide]
NC(=O)/C=C/c1c[nH]c2ncc(-c3cc(Cl)cc(C(F)(F)F)c3)cc12 [Example 347, (E)-3-(5-(3-chloro-5-(trifluoromethyl)phenyl)-1H-pyrrolo[2,3-b]pyridin-3-yl)acrylamide]
Cc1cc(-c2cnc3[nH]cc(/C=C/C(N)=O)c3c2)cc(C(F)(F)F)c1 [Example 348, (E)-3-(5-(3-methyl-5-(trifluoromethyl)phenyl)-1H-pyrrolo[2,3-b]pyridin-3-yl)acrylamide]
COc1cc(-c2cnc3[nH]cc(/C=C/C(N)=O)c3c2)cc(C(F)(F)F)c1 [Example 349, (E)-3-(5-(3-methoxy-5-(trifluoromethyl)phenyl)-1H-pyrrolo[2,3-b]pyridin-3-yl)acrylamide]
NC(=O)/C=C/c1c[nH]c2ncc(-c3cc(Cl)nc(C(F)(F)F)c3)cc12 [Example 350, (E)-3-(5-(2-chloro-6-(trifluoromethyl)pyridin-4-yl)-1H-pyrrolo[2,3-b]pyridin-3-yl)acrylamide]
Cc1nc(C(=O)N(C)C)ccc1-c1cnc2[nH]cc(/C=C/C(N)=O)c2c1 [Example 351, (E)-5-(3-(3-amino-3-oxoprop-1-en-1-yl)-1H-pyrrolo[2,3-b]pyridin-5-yl)-N,N,6-trimethyl-picolinamide]
NC(=O)/C=C/c1c[nH]c2ncc(-c3ccc4c(c3)C(=O)CC4)cc12 [Example 352, (E)-3-(5-(3-oxo-2,3-dihydro-1H-inden-5-yl)-1H-pyrrolo[2,3-b]pyridin-3-yl)acrylamide]
NC(=O)/C=C/c1c[nH]c2ncc(C(=O)c3ccc(F)cc3)cc12 [Example 353, (E)-3-(5-(4-fluorobenzoyl)-1H-pyrrolo[2,3-b]pyridin-3-yl)acrylamide]
CN(C)C(=O)c1cnc2[nH]cc(/C=C/C(N)=O)c2c1 [Example 355, (E)-3-(3-amino-3-oxoprop-1-en-1-yl)-N,N-dimethyl-1H-pyrrolo[2,3-b]pyridine-5-carboxamide]
NC(=O)/C=C/c1c[nH]c2ncc(C=O)cc12 [Example 356, (E)-3-(5-formyl-1H-pyrrolo[2,3-b]pyridin-3-yl)acrylamide]
